From patent publication US9073955B2, “2-amino-4-arylthiazole compounds as TRPA1 antagonists” (Glenmark Pharmaceuticals, S.A., priority 2010, dated 2015)
Like-named read-outs stand apart in the source and are kept apart here.

Legend:
Human TRPA1 = target: T1, Human TRPA1 (Homo sapiens, UniProt O75762); experiment: 45Calcium uptake assay: inhibition of AITC induced cellular uptake of radioactive calcium; assay type: cell-based; settings: human TRPA1 expressing CHO cells, AITC 30 μM; for inhibition at 1 µM: read-out: Percentage inhibition at 1.0 μM; for inhibition at 10 µM: read-out: Percentage inhibition at 10.0 μM
T1 construct: expressed in transfected cells; host or cells: CHO cells (grown with 400 μg/ml G-418)
T1 sequence (O75762 whole entry): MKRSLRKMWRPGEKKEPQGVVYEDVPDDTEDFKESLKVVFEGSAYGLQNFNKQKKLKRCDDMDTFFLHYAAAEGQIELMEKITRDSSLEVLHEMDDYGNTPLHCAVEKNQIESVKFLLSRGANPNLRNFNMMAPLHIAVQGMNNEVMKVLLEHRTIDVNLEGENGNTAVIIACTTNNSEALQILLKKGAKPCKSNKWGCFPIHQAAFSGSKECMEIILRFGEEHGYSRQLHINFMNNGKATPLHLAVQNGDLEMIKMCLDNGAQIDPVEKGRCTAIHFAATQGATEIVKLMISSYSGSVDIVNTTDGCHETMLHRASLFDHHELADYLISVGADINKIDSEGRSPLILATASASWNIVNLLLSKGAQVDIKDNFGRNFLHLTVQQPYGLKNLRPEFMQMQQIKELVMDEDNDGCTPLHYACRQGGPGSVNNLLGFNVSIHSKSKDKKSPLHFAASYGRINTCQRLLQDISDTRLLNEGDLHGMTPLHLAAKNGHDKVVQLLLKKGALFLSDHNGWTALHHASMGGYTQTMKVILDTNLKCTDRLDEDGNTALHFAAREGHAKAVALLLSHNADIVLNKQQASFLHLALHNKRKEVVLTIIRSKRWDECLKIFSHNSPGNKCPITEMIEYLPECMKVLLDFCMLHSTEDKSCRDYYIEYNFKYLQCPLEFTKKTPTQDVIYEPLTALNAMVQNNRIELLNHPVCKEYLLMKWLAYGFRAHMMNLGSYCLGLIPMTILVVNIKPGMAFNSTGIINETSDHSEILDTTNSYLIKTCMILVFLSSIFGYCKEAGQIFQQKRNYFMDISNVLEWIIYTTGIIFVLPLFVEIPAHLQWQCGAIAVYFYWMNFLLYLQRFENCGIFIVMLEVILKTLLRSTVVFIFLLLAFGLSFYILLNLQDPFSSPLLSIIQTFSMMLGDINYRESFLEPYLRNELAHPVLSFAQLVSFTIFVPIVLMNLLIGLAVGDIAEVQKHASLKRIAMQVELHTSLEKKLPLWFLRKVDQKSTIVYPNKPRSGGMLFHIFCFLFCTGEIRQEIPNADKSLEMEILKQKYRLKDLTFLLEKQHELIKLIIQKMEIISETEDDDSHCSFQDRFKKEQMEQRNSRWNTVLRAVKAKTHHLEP
Description: The illustrative examples of the present invention were screened for TRPA1 activity according to a modified procedure described in (a) Tóth, A. et al. Life Sciences, 2003, 73, 487-498. ([…]. et al, Proc. Natl. Acad. Sci. U.S.A., 2007, 104, 13525-13530. The screening of the compounds can be carried out by other methods and procedures known to persons skilled in the art. Screening for TRPA1 Antagonist Using the ^45Calcium Uptake Assay: The inhibition of TRPA1 receptor activation was measured as inhibition of allyl isothiocyanate (AITC) induced cellular uptake of radioactive calcium. Test compounds were dissolved in 100% DMSO to prepare 10 mM stock and then diluted using plain medium with 0.1% BSA and 1.8 mM CaCl2 to get the desired concentration. The final concentration of DMSO in the reaction was 0.5% (v/v). Human TRPA1 expressing CHO cells were grown in F-12 DMEM medium with 10% FBS, 1% penicillin-streptomycin solution, and 400 μg/ml of G-418. Cells were seeded 24 h prior to the assay in 96 well plates so as to get 50,000 cells per well on the day of experiment. Cells were treated with the test compounds for 10 minutes followed by the addition of AITC at a final concentration of 30 μM and 5 μCi/ml^45Ca^+2 for 3 minutes. Cells were washed and lysed using a buffer containing 1% Triton X-100, 0.1% deoxycholate and 0.1% SDS. Radioactivity in the lysate was measured in a Packard TopCount after addition of liquid scintillant. (Toth et al, Life Sciences (2003) 73, 487-498; McNamara C R et al, Proceedings of the National Academy of Sciences, (2007) 104, 13525-13530). Concentration response curves were plotted as a % of maximal response obtained in the absence of test antagonist. IC50 values can be calculated from concentration response curve by nonlinear regression analysis using GraphPad PRISM software.

[1] = Rat pharmacokinetic (PK) study, oral suspension; assay type: in vivo, male rats (Sprague Dawley); settings: for pharmacokinetic properties (Cmax and AUC) compared to the parent thiazole acetamide: compared with the corresponding parent compound of formula (1)
Description: PK values were obtained in male rats (strain: Sprague Dawley) orally dosed with the compounds of the present invention as suspension. Accurately weighed quantity of compound of present invention (corrected for purity and salt factor) was transferred into a clean and dry mortar. To this mortar was added 2.5 μL/mL Tween 80 and triturated until the compound gets properly wet. To this, 0.5% (w/v) methyl cellulose suspension was added in geometric proportions and triturated thoroughly to form a uniform suspension.
Animals were provided with food and water ad libitum through out the study period. Animals were dosed orally with the compounds using a gavage needle at 10 mL/kg body weight. Blood samples (250 μl approx.) were collected from male Sprague Dawley retro orbital sinus using rat capillary tubes into 0.6 mL eppendorf tubes with tripotassium ethylenediaminetetraacetic acid (K3 EDTA) (25 μL) as anticoagulant. Samples were collected at 0.5, 1.0, 2.0, 4.0, 6.0, 8.0, 12.0 and 24.0 hr post dosing for compounds. Then samples were centrifuged immediately at 1000 g for 10 min. at 4° C. Plasma samples were separated and stored at −70° C. till analysis. Samples were processed and analyzed using LCMS/MS. Pharmacokinetic parameters were calculated using Winonlin software. Table 4 provides the pK values (Cmax, AUC) obtained in these studies.

[2] = Determination of solubility by shake flask method (water); assay type: physicochemical; settings: for solubility at 15 min: thermodynamic from solid, ‘P’ substituted thiazole compound, water, 37° C., shake flask
Description: About 1 mg of test substance was taken in test tube and water was added in the increment of 1 ml with shaking after addition of media (water). Solubility was observed visually also. After completion of addition of 10 ml volume of media (water), test tube containing sample solution were put on a mechanical shaker set at 37° C. and 200 rpm for shaking up to 15 minute. After shaking, content of flask was filtered through 0.45μ filter. This filtered solution is analyzed using HPLC method for quantification. A sample solution of 1 mg in 10 ml of DMSO is used as reference standard for quantifying dissolved test substance in media. Solubility is expressed as mcg/ml.
Aqueous solubility of ‘P’ substituted thiazole compounds and the parent thiazole compounds were determined using the above described procedure and the results are given Table 3.

SMILES: Cc1oc2c(c1CC(=O)/N=c1\scc(-c3ccc(OC(F)(F)F)c(Cl)c3)n1COC(=O)C1CCNCC1)c(=O)n(C)c(=O)n2C.Cl [Example 23, [4-[3-Chloro-4-(trifluoromethoxy)phenyl]-2-{[(1,3,6-trimethyl-2,4-dioxo-1,2,3,4-tetrahydrofuro[2,3-d]pyrimidin-5-yl)acetyl]imino}-1,3-thiazol-3 (2H)-yl]methyl piperidine-4-carboxylate hydrochloride]
- inhibition at 1 µM (Human TRPA1): 91.2%
- inhibition at 10 µM (Human TRPA1): 97.8%
- IC50 (Human TRPA1): 100 to 500 nM
- pharmacokinetic properties (Cmax and AUC) compared to the parent thiazole acetamide [1]: better pharmacokinetic properties

SMILES: Cn1c(=O)c2c(CC(=O)Nc3nc(-c4ccc(C(F)(F)F)c(F)c4F)cs3)nsc2n(C)c1=O [parent of Example 31, N-{4-[2,3-difluoro-4-(trifluoromethyl)phenyl]-1,3-thiazol-2-yl}-2-(5,7-dimethyl-4,6-dioxo-4,5,6,7-tetrahydro[1,2]thiazolo[5,4-d]pyrimidin-3-yl)acetamide, reference compound]
- Cmax ([1]; rat, plasma, parent thiazole compound of the example, male Sprague Dawley rats, oral suspension): < 250 ng/mL
- AUC(0-t) ([1]; rat, plasma, parent thiazole compound of the example, male Sprague Dawley rats, oral suspension, read-out: AUC0-24): < 2500 ng·h/mL

SMILES: Cl.Cn1c(=O)c2c(CC(=O)/N=c3\scc(-c4ccc(F)c(C(F)(F)F)c4F)n3COC(=O)CN)csc2n(C)c1=O [Example 3, [4-[2,4-Difluoro-3-(trifluoromethyl)phenyl]-2-{[(1,3-dimethyl-2,4-dioxo-1,2,3,4-tetrahydrothieno[2,3-d]pyrimidin-5-yl)acetyl]imino}-1,3-thiazol-3 (2H)-yl]methyl glycinate hydrochloride]
- aqueous solubility over the parent thiazole acetamide ([2]; compared with the corresponding parent compound of formula (1)): better aqueous solubility
- inhibition at 1 µM (Human TRPA1): 100%
- inhibition at 10 µM (Human TRPA1): 99.9%
- IC50 (Human TRPA1): < 100 nM

SMILES: CC[C@H](C)[C@H](N)C(=O)OCn1c(-c2ccc(F)c(C(F)(F)F)c2F)cs/c1=N\C(=O)Cc1csc2c1c(=O)n(C)c(=O)n2C.Cl [Example 7, [4-[2,4-Difluoro-3-(trifluoromethyl)phenyl]-2-{[(1,3-dimethyl-2,4-dioxo-1,2,3,4-tetrahydrothieno[2,3-d]pyrimidin-5-yl)acetyl]imino}-1,3-thiazol-3 (2H)-yl]methyl L-isoleucinate hydrochloride]
- inhibition at 1 µM (Human TRPA1): 98.6%
- inhibition at 10 µM (Human TRPA1): 99.6%
- IC50 (Human TRPA1): < 100 nM
- pharmacokinetic properties (Cmax and AUC) compared to the parent thiazole acetamide [1]: better pharmacokinetic properties

SMILES: Cc1oc2c(c1CC(=O)/N=c1\scc(-c3ccc(OC(F)(F)F)c(Cl)c3)n1COC(=O)[C@@H](N)C(C)C)c(=O)n(C)c(=O)n2C.Cl [Example 21, [4-[3-Chloro-4-(trifluoromethoxy)phenyl]-2-{[(1,3,6-trimethyl-2,4-dioxo-1,2,3,4-tetrahydrofuro[2,3-d]pyrimidin-5-yl)acetyl]imino}-1,3-thiazol-3(2H)-yl]methyl L-valinate hydrochloride]
- inhibition at 1 µM (Human TRPA1; CHO): 93.8%
- inhibition at 10 µM (Human TRPA1; CHO): 99.9%
- IC50 (Human TRPA1): < 100 nM
- pharmacokinetic properties (Cmax and AUC) compared to the parent thiazole acetamide [1]: better pharmacokinetic properties

SMILES: Cn1c(=O)c2c(CC(=O)/N=c3\scc(-c4ccc(F)c(C(F)(F)F)c4F)n3COP(=O)(O)O)csc2n(C)c1=O [Example 13, [4-[2,4-Difluoro-3-(trifluoromethyl)phenyl]-2-{[(1,3-dimethyl-2,4-dioxo-1,2,3,4-tetrahydrothieno[2,3-d]pyrimidin-5-yl)acetyl]imino}-1,3-thiazol-3 (2H)-yl]methyl dihydrogen phosphate]
- solubility at 15 min [2]: > 2.5 µg/mL
- inhibition at 1 µM (Human TRPA1; CHO): 75.3%
- inhibition at 10 µM (Human TRPA1; CHO): 99.3%
- IC50 (Human TRPA1): > 500 nM

SMILES: CC[C@H](C)[C@H](N)C(=O)OCn1c(-c2ccc(C(F)(F)F)c(F)c2)cs/c1=N\C(=O)Cc1csc2c1c(=O)n(C)c(=O)n2C.Cl [Example 6, [2-{[(1,3-Dimethyl-2,4-dioxo-1,2,3,4-tetrahydrothieno[2,3-d]pyrimidin-5-yl)acetyl]imino}-4-[3-fluoro-4-(trifluoromethyl)phenyl]-1,3-thiazol-3(2H)-yl]methyl L-isoleucinate hydrochloride]
- inhibition at 1 µM (Human TRPA1): 89.8%
- inhibition at 10 µM (Human TRPA1): 98.6%
- IC50 (Human TRPA1): 100 to 500 nM
- pharmacokinetic properties (Cmax and AUC) compared to the parent thiazole acetamide [1]: better pharmacokinetic properties

SMILES: Cn1c(=O)c2c(CC(=O)/N=c3\scc(-c4ccc(F)c(C(F)(F)F)c4F)n3COP(=O)([O-])[O-])csc2n(C)c1=O.[Na+].[Na+] [Example 14, Disodium[4-[2,4-difluoro-3-(trifluoromethyl)phenyl]-2-{[(1,3-dimethyl-2,4-dioxo-1,2,3,4-tetrahydrothieno[2,3-d]pyrimidin-5-yl)acetyl]imino}-1,3-thiazol-3(2H)-yl]methyl phosphate]
- solubility at 15 min [2]: > 1200 µg/mL
- IC50 (Human TRPA1): 100 to 500 nM

SMILES: Cn1nc2c(c1CC(=O)N=c1scc(-c3ccc(F)c(C(F)(F)F)c3F)n1COP(=O)([O-])[O-])c(=O)n(C)c(=O)n2C.[Na+].[Na+] [Example 29, Disodium-(4-(2,4-difluoro-3-(trifluoromethyl)phenyl)-2-((2-(2,5,7-trimethyl-4,6-dioxo-4,5,6,7-tetrahydro-2H-pyrazolo[3,4-d]pyrimidin-3-yl)acetyl)imino)thiazol-3 (2H)-yl)methyl phosphate]
- solubility at 15 min [2]: > 110 µg/mL
- IC50 (Human TRPA1): > 500 nM

SMILES: CCc1sc2c(c1CC(=O)/N=c1\scc(-c3ccc(C(F)(F)F)c(F)c3)n1COP(=O)(O)O)c(=O)n(C)c(=O)n2C [Example 17, [2-{[(6-ethyl-1,3-dimethyl-2,4-dioxo-1,2,3,4-tetrahydrothieno[2,3-d]pyrimidin-5-yl)acetyl]imino}-4-[3-fluoro-4-(trifluoromethyl)phenyl]-1,3-thiazol-3 (2H)-yl]methyl dihydrogen phosphate]
- inhibition at 1 µM (Human TRPA1): 20.8%
- inhibition at 10 µM (Human TRPA1): 96.8%
- IC50 (Human TRPA1): > 500 nM

SMILES: Cc1oc2c(c1CC(=O)/N=c1\scc(-c3ccc(OC(F)(F)F)c(Cl)c3)n1COC(=O)CN)c(=O)n(C)c(=O)n2C.Cl [Example 20, [4-[3-Chloro-4-(trifluoromethoxy)phenyl]-2-{[(1,3,6-trimethyl-2,4-dioxo-1,2,3,4-tetrahydrofuro[2,3-d]pyrimidin-5-yl)acetyl]imino}-1,3-thiazol-3 (2H)-yl]methyl glycinate hydrochloride]
- inhibition at 1 µM (Human TRPA1): 96.7%
- inhibition at 10 µM (Human TRPA1): 96.2%
- IC50 (Human TRPA1): < 100 nM
- pharmacokinetic properties (Cmax and AUC) compared to the parent thiazole acetamide [1]: better pharmacokinetic properties

SMILES: CC(C)C(=O)OCn1c(-c2ccc(F)c(C(F)(F)F)c2F)cs/c1=N\C(=O)Cc1csc2c1c(=O)n(C)c(=O)n2C [Example 2, [4-[2,4-Difluoro-3-(trifluoromethyl)phenyl]-2-{[(1,3-dimethyl-2,4-dioxo-1,2,3,4-tetrahydrothieno[2,3-d]pyrimidin-5-yl)acetyl]imino}-1,3-thiazol-3(2H)-yl]methyl-2-methylpropanoate]
- inhibition at 1 µM (Human TRPA1): 54.8%
- inhibition at 10 µM (Human TRPA1): 70.2%
- IC50 (Human TRPA1): > 500 nM
